A short description of data set [1]: Solubility estimates using nephelometry. The data set is classed as physicochemical. As to conditions: pH 6.5 phosphate buffer. As for the experimental part: Compound in DMSO was spiked into either pH 6.5 phosphate buffer or 0.01 M HCl (approx. pH 2.0) with the final DMSO concentration being 1%. Samples were then analysed via Nephelometry to determine a solubility range. (See C. D. Bevan and R. S. Lloyd, Anal. Chem. 2000, 72, 1781-1787).

Data set [2] in a line: Exposure in male Swiss outbred mice following IV administration. As to conditions: IV 5 mg/kg. Type of data set: in vivo. On the procedure: The systemic exposures of NCL026, NCL195, NCL259 and NCL812 were studied in nonfasted male Swiss outbred mice weighing 26.2-32.1 g. Mice had access to food and water ad libitum throughout the pre- and post-dose sampling period. Each compound was administered IV via a bolus injection into the tail vein (vehicle 20% (v/v) DMSO in PEG400, 1 mL/kg dose volume, n=8 mice per compound). […] A maximum of two samples were obtained from each mouse, with samples being taken either via submandibular bleed (approximately 120 μL; conscious sampling) or terminal cardiac puncture (0.6 mL; while mice were anaesthetised using inhaled Isoflurane). No urine samples were collected as mice were housed in bedded cages during the study. Blood was collected directly into polypropylene Eppendorf tubes containing heparin as anticoagulant, and stabilisation cocktail (containing Complete® (a protease inhibitor cocktail with EDTA) and potassium fluoride) to minimise the potential for ex vivo degradation of the test compounds in blood/plasma samples. Once collected, blood samples were centrifuged immediately, supernatant plasma was removed, and stored at −80° C. until analysis by LC-MS using methods standard in the art. Each compound was administered in a vehicle composed of 20% (v/v) DMSO in PEG400. Formulations were prepared by dissolving the compounds in DMSO prior to addition of PEG400. Formulations were not filtered prior to dosing and were administered to mice within 2.5 h of preparation. […] The dose administered to each mouse was calculated on the basis of the measured concentration in the IV formulation, the dose volume and individual mouse body weight. Plasma concentration versus time data were analysed using non-compartmental methods (WinNonlin Version 6.3.0.395). Standard calculations for each pharmacokinetic parameter were calculated using standard methods in the art.

Setting [3] is: values marked a, b are approximations.

SMILES strings stand for the structures. Marks after values point to notes of the source that are not given here.

For the compound `Cl.[H]/N=C(\N)NN=C(CC1CCCCC1)c1ccc(Cl)cc1` [NCL259], in data set [1], the “kinetic solubility under neutral pH conditions” value was “more moderate”. Further, the “Apparent t1/2” value in data set [2] (plasma, value marked b is an approximation) was 2.9 h. For the same compound, in data set [2] (setting [3]), the AUC0-inf was 5.5^a h * μM, the “Plasma CL” value is listed as 56.0^a mL/min/kg and the “Plasma Vss” value was 12.8^a L/kg.

The record behind these values is US10392363B2, “Methods for treating protozoan infections” (Neoculi Pty Ltd., priority 2014, dated 2019).
